Experimental data as given in patent US5336621A, “Divalent hapten derivatives” (Hoechst Celanese Corporation, priority 1988, dated 1994).

Assay: Solubility comparison for bis-(theophylline-8-butyryl)-diamides
Type: physicochemical
Experimental: The bis-(theophylline-8-butyryl)-diamides of 1,6-hexanediamine and 4,9-dioxa-1,12-dodecanediamine (examples 2 and 3) were each dissolved in dimethylsulfoxide. The 4,9-dioxa-1,12-dodecanediamide dissolved readily to give a solution of 10 mg/0.5 ml at room temperature.

| solution obtained in dimethylsulfoxide (required heating to obtain a solution in dimethylsulfoxide) [mg/2 ml] | behaviour on dilution of DMSO solution into aqueous phosphate buffer (10 mg/0.5 ml DMSO solution diluted into 2 ml of 50 mM aqueous sodium phosphate buffer (pH 7.5)) | solution obtained in dimethylsulfoxide (dissolved readily in dimethylsulfoxide, room temperature) [mg/0.5 ml] | Structure (SMILES) | behaviour on dilution of DMSO solution into aqueous phosphate buffer (10 mg/2 ml DMSO solution diluted into a two-fold volume of pH 7.5 phosphate buffer) |
| --- | --- | --- | --- | --- |
| 10 | – | – | Cn1c(=O)c2[nH]c(CCCC(=O)NCCCCCCNC(=O)CCCc3nc4c([nH]3)c(=O)n(C)c(=O)n4C)nc2n(C)c1=O [Example 2, bis-(Theophylline-8-butyryl)-1,6-hexanediamine] | immediate heavy precipitation of divalent hapten was noted |
| – | clear, stable solution | 10 | Cn1c(=O)c2[nH]c(CCCC(=O)NCCCOCCCCOCCCNC(=O)CCCc3nc4c([nH]3)c(=O)n(C)c(=O)n4C)nc2n(C)c1=O [Example 3, bis-(Theophylline-8-butyryl)-4,9-dioxa-1,12-dodecane-diamide] | – |
